Assay results reported in patent US20130171217A1, “ENZYMATIC PERACID GENERATION FOR USE IN SKIN CARE PRODUCTS” (E I DU PONT DE NEMOURS AND COMPANY, priority 2010, published 2013).

Key:
[1] = Single fiber tensile strength test of hair after chemical treatment (NAIR, PAA, bleach creams, reductive solution, triacetin/H2O2)
Text: Since the quality and diameter of the hair samples are variables, hair sample pre-selection is used to achieve reasonable standard deviation in the tensile strength test. […] To prevent contamination, gloves were used while handing hair fiber samples.
Plastic transfer pipette tubes were cut to 2^7/8 inches (approximately 7.3 cm) by cutting off the bulb end. A hair bundle with 7 to 20 hair strands was carefully inserted into the tube keeping the hair fibers together by taping one end together and attached to the outside top of the wider end of the transfer pipette. This also helped to keep the strands in place once in the tube.
Solution/cream (200 μL) was added to a 2.0-mL microfuge tube. The hair sample was placed into tube by inserting the smaller end of transfer pipette inside tube with hair protruding out of the tip such that the hair strands formed a U shape and the free end of the strands hung loosely outside of the microfuge tube.
After certain application, hair samples were dried and equilibrated in the temperature and humidity control room for at least 12 hr, preferably 24 hr, before tensile strength test.
(§1) Hair samples were cut into pieces 4-inches in length. The denier number (liner mass density) of each hair fiber was measured by Textechno Vibromat Instrument (Textechno Herbert Stein GmbH & Co. KG; Germany). The hair fibers were tested according to ASTM D 3822-01 (“Tensile Properties of Single Textile Fibers”; ASTM International, West Conshohocken, Pa., 2001), on an Instron testing system (Instron Model 1122 Tester; Instron, Mass.) at about 70° F. (approximately 21° C.) and 65% relative humidity. The treated area of the hair sample was placed in the middle of the gauge and both ends were gripped on the test heads. Both fiber ends were attached on a piece of tape, respectively, for easy handling and gripping on the test heads. The test used 2-inch (5.1 cm) gauge length, […], and 1.2 inch/min (3 cm/min) pulling rate. The force-strain curve of the fiber was recorded during the test. The tenacity at maximum (gf/den) was calculated by dividing maximum force (gf) by denier number (den). Note that (gf/den)/11.33=Newtons/tex (N/tex).
Tenacity at maximum (tensile strength) of each hair sample was used to compare the integrity of the hair sample. A lower value of the tenacity at maximum is indicative of an improved weakening efficacy. A commercial depilatory cream, NAIR® (an alkali/potassium thioglycolate-based hair removal product from Church and Dwight Co., Inc., Princeton, N.J.), was used to set a target level for hair weakening. Based on the NAIR® product instruction, the recommended treatment time is 3 min to 10 min. Therefore, the tenacity at maximum of a hair sample treated with NAIR® between 3 min to 10 min was used to determine the target level. During hair treatment, about 200 μL of NAIR® cream was added to a 2-mL microfuge tube and hair samples were soaked in the cream for 3, 5 and 10 min. Hair samples were then rinsed with tape water to remove all the cream and then were dried under a stream of N2. […] Therefore, the desired level of hair weakening efficacy was targeted in the range from 0.8 gf/den to 1.3 gf/den under similar testing conditions.
Peracetic acid was added in 50 mM phosphate buffer to prepare solutions with different PAA concentrations at pH 6 and pH 8. A PAA solution (200 μL) was added to a 2-mL microfuge tube and hair samples were inserted for 2 hours. Hair samples were then rinsed with deionized water and dried under N2.
[…] […] The treatment was repeated for 7 times or 15 times, i.e., 4 hours and 8 hours of total exposure time, respectively.
The same multiple treatment as in Example 3 was applied with two commercially available hydrogen peroxide-based bleaching creams (SALLY HANSEN® bleach cream for face and SALLY HANSEN® extra strength bleach cream for face & body; Del Laboratories, Inc., Uniondale, N.Y.) and 6 wt % hydrogen peroxide (H2O2) in a similar pH 8, 20% urea, phosphate solution. […]

[2] = Wool removal from sheep pelt strips by PAA solutions; conditions: 15 wt % urea, pH 8
Procedure: To evaluate the efficacy of PAA solution on removing the wool from a sheep pelt sample, the following experiment was carried out. Pelt strips (0.5 cm×3 cm) were cut and the wool fibers were trimmed to a length of 0.2 cm. Each solution (50 μL) was applied on separated pelt strip (half of the length treated and half of the length untreated). The pelt strip samples were allowed to stand for 10 min at room temperature ([…]). Excess liquid was removed by blotting and the samples were put inside a plastic tube for 30 min for further treatment and then washed with 50 μL of a 2% sodium lauryl ether sulfate (SLES) solution, rinsed with tap water (excess liquid was removed by blotting), and then dried under N2. The treatment was repeated until the wool fibers in treated area were all removed. Three different solutions were tested using this protocol, a) 0.6 wt % PAA, 15 wt % urea, with 0.5 wt % SLES in a pH 8, 50 mM phosphate buffer; b) 0.6 wt % PAA and 15 wt % urea in a pH 8, 50 mM phosphate buffer; c) 0.2 wt % PAA, 15 wt % urea, 0.5 wt % SLES in a pH 8, 50 mM phosphate buffer. At the 19th, 23rd, 24th application, respectively, the wool fibers on the samples treated with solution (a), (b) and (c) were completely removed. The addition of 0.5 wt % SLES seems to accelerate the wool removal process.

[3] = Single fiber tensile strength and bleaching start after two-step enzymatic application; conditions: two-step with buffer rinse
Procedure: as §1
In a two-step application, the hair strands are first treated with perhydrolase solutions to allow the enzyme to bind hair. The hair strands are then dried or rinsed with buffer and dried. The rinse step is intended to remove excess unbound enzyme from the hair. The hair strands are soaked in triacetin and H2O2 solutions. The application is repeated for multiple times.
One experiment was carried out with C277S-HC263 and untargeted T. maritima variant C277S using the following protocol: • 1. Enzyme solutions comprising 0.5 mg/mL enzyme in 50 mM phosphate buffer (pH 8) were made with or without 10 wt % urea. • 2. Seven (7) hair strands were soaked in 0.2 mL of an enzyme solution for 10 min and then dried under N2 without prior rinsing. • 3. The hair strands were then soaked in 0.2 mL of a pH 8 solution containing 100-mM triacetin and 250-mM H2O2 for 15 min, dried, then rinsed with DI water and then dried again. • 4. Steps 2-3 were repeated up to 15 times.
Another experiment was carried out with C277S-HC263 (SEQ ID NO: 288), CPAH-HC263 (SEQ ID NO: 294), CPAH-HC1010 (SEQ ID NO: 295) and untargeted C277S using the following protocol: • 1. Enzyme solutions comprising 1.0 mg/mL enzyme in 50 mM phosphate buffer (pH 6) were prepared. For solutions containing two enzymes, the concentration of each enzyme was approximately 0.5 mg/mL. • 2. Seven (7) hair strands were soaked in 0.2 mL of an enzyme solution for 10 min, rinsed with 50 mM phosphate buffer (pH 6), and then dried under N2. • 3. The dried hair strands were then soaked into 0.2 mL of 50 mM phosphate buffer solution (pH 8) comprising 100 mM triacetin and 250 mM H2O2 for 15 min, dried, then rinsed with DI water and then dried again. • 4.

[4] = Impact of additives on perhydrolase activity, PAA indicator strip; format: biochemical; conditions: glycerin, ethanol, sorbitol, polyethylene glycol or propylene glycol additive
Procedure: A peracetic acid indicator strip with detection range from 75 to 400 ppm was used to study the impact of additives on the perhydrolase activity of a perhydrolase. When the PAA concentration is at least 0.2 wt %, the dark color generated on the indicator strip will turn back to original white color over time.
A first solution (“solution A”) was prepared using 50 mM phosphate buffer (pH 8) and 10 wt % of one of the following additives: glycerin, ethanol, sorbitol, polyethylene glycol, propylene glycol in, respectively.
A second solution (“solution B”) was prepared by mixing 30% H2O2 and 50 mM phosphate buffer (pH 8) whereby the final concentration of H2O2 was 500 mM.
A third solution (“solution C”) was prepared comprising of CPAH-HC1010 (SEQ ID NO: 295) (0.2 mg/mL), triacetin (200 mM), 50 mM phosphate buffer (pH 8), and solution A (5 wt % additive). Immediately, added solution B in a 1:1 volume ratio. After 1 to 5 min, a 30-μL sample of the resulting solution was removed and immediately placed on a PAA indicator strip.
This process was repeated for each of the additives listed above.

## CC(=O)OO [PAA, peracetic acid]
[1]; [PAA] 0.01 wt % then reductive solution (5 wt % potassium thioglycolate, pH 7.5), 20 min × 16, urea 10 wt %
  Ten. @ Max: 1.2 gf/den
[1]; [PAA] 0.01 wt %, 20 min × 16, urea 10 wt %, pH 8
  Ten. @ Max: 1.7 gf/den
[1]; [PAA] 0.02 wt % then reductive solution, 20 min × 16, urea 10 wt %
  Ten. @ Max: 1.6 gf/den
[1]; [PAA] 0.02 wt %, 20 min × 16, urea 10 wt %, pH 8
  Ten. @ Max: 1.7 gf/den
[1]; [PAA] 0.02 wt %, soaking 2 hr, pH 6
  Ten. @ Max: 1.7 gf/den
[1]; [PAA] 0.02 wt %, soaking 2 hr, urea 0 wt %
  Ten. @ Max: 1.6 gf/den
[1]; [PAA] 0.02 wt %, soaking 4 hr, urea 20 wt %
  Ten. @ Max: 1.7 gf/den
[1]; [PAA] 0.05 wt % then reductive solution, 20 min × 16, urea 10 wt %
  Ten. @ Max: 0.8 gf/den
[1]; [PAA] 0.05 wt %, 20 min × 16, urea 10 wt %, pH 8
  Ten. @ Max: 1.5 gf/den
[1]; [PAA] 0.10 wt % then reductive solution, 20 min × 8, urea 10 wt %
  Ten. @ Max: 0.9 gf/den
[1]; [PAA] 0.10 wt %, 20 min × 16, urea 10 wt %, pH 8
  Ten. @ Max: 1.1 gf/den
[1]; [PAA] 0.20 wt % then reductive solution, 20 min × 8, urea 10 wt %
  Ten. @ Max: 0.7 gf/den
[1]; [PAA] 0.20 wt %, 20 min × 16, urea 10 wt %, pH 8
  Ten. @ Max: 0.7 gf/den
[1]; [PAA] 0.20 wt %, 30 min × 8, urea 20 wt %, pH 8
  Ten. @ Max: 1.3 gf/den
[1]; [PAA] 0.20 wt %, 30 min × 16, urea 20 wt %, pH 8
  Ten. @ Max: 0.6 gf/den
[1]; [PAA] 0.20 wt %, soaking 2 hr, pH 6
  Ten. @ Max: 1.5 gf/den
[1]; [PAA] 0.20 wt %, soaking 2 hr, pH 8
  Ten. @ Max: 1.6 gf/den
[1]; [PAA] 0.20 wt %, soaking 2 hr, urea 20 wt %
  Ten. @ Max: 1.6 gf/den
[1]; [PAA] 0.20 wt %, soaking 4 hr, urea 20 wt %
  Ten. @ Max: 1.5 gf/den
[1]; [PAA] 0.60 wt %, 30 min × 8, urea 20 wt %, pH 8
  Ten. @ Max: 0.4 gf/den
[1]; [PAA] 0.60 wt %, 30 min × 16, urea 20 wt %, pH 8
  Ten. @ Max (hair integrity): NA: Not applicable as all hair strains in sample 6 lost their integrity before the 16th application and could not be analyzed.
[1]; [PAA] 0.60 wt %, soaking 2 hr, pH 6
  Ten. @ Max: 1.3 gf/den
[1]; [PAA] 0.60 wt %, soaking 2 hr, pH 8
  Ten. @ Max: 1.3 gf/den
[1]; [PAA] 0.60 wt %, soaking 2 hr, urea 0 wt %
  Ten. @ Max: 1.3 gf/den
[1]; [PAA] 0.60 wt %, soaking 2 hr, urea 20 wt %
  Ten. @ Max: 1.4 gf/den
[1]; [PAA] 0.60 wt %, soaking 4 hr, urea 0 wt %
  Ten. @ Max: 1.2 gf/den
[1]; [PAA] 0.60 wt %, soaking 4 hr, urea 20 wt %
  Ten. @ Max: 0.8 gf/den
[1]; [PAA] 2.00 wt %, soaking 2 hr, pH 6
  Ten. @ Max: 0.9 gf/den
[1]; [PAA] 2.00 wt %, soaking 2 hr, pH 8
  Ten. @ Max: 0.8 gf/den
[1]; longer soaking time and 20% urea
  effective PAA concentration: about 0.6 wt %
[1]; multiple treatments up to 16 times, 20 wt % urea
  effective PAA concentration to achieve target hair weakening level: 0.2 wt %
[1]; single application, 2 hours, pH 6 and pH 8
  PAA concentration needed to achieve the targeted hair weakening level: greater than 0.6 wt %
[2]; solution (a): 0.6 wt % PAA, 0.5 wt % SLES
  application at which the wool fibers were completely removed: 19 application
[2]; solution (b): 0.6 wt % PAA
  application at which the wool fibers were completely removed: 23 application
[2]; solution (c): 0.2 wt % PAA, 0.5 wt % SLES
  application at which the wool fibers were completely removed: 24 application

B1: CPAH-HC1010: fusion peptide C277S-HC1010 further comprising a D128G substitution (protein)
chain: MAFFDLPLEELKKYRPERYEEKDFDEFWEETLAESEKFPLDPVFERMESHLKTVEAYDVTFSGYRGQRIKGWLLVPKLEEEKLPCVVQYIGYNGGRGFPHDWLFWPSMGYICFVMDTRGQGSGWLKGGTPDYPEGPVDPQYPGFMTRGILDPRTYYYRRVFTDAVRAVEAAASFPQVDQERIVIAGGSQGGGIALAVSALSKKAKALLCDVPFLCHFRRAVQLVDTHPYAEITNFLKTHRDKEEIVFRTLSYFDGVNFAARAKIPALFSVGLMDNISPPSTVFAAYNYYAGPKEIRIYPYNNHEGGGSFQAVEQVKFLKKLFEKGGPGSGGAGSPGSAGGPGSAQSQLPDKHSGLHERAPQRYGSGTAEIQSSKNPNPHPQRSWTNGSGHNHMQERYTDPQHSPSVNGLGSGHDHKNQKETHQRHAASSHHHHHH
[3]; 1.0 mg/mL enzyme pH 6
  Bleaching Start: 12th
[3]; 1.0 mg/mL enzyme pH 6, 100 mM triacetin, 250 mM H2O2, up to 13 repeats
  Tenacity @ max: 1.2 gf/den
[4]
  perhydrolase activity (PAA by indicator strip) in presence of additives: ≥ 2000 ppm
